Experimental data as given in US20210115104A1, “AMYLIN ANALOGUES” (Zealand Pharma A/S, priority 2015, published 2021).
*1 amine or outer side, *2 acyl side, *3 side chain or, on linkers, in order; H or OH if unused. Where a SMILES comes first, the peptide text is derived from it. Bridges are numbered along the chain shown (N, C = ends). [ ]: non-standard residue; d: D form. The star is where a group is joined. C20 diacid = O=C(O)CCCCCCCCCCCCCCCCCCC(=O)*; Pro(4R-NH2) = N[C@H]1CN[C@H](C(=O)O)C1; γGlu = O=C(O)[C@H](CCC(=O)[*:2])N[*:1]; Hyp = O=C(O)[C@@H]1C[C@@H](O)CN1; NMeI = CC[C@H](C)[C@H](NC)C(=O)O; Sar = CNCC(=O)O

molecular target: T1, human calcitonin receptor (hCTR2) (Homo sapiens, UniProt P30988); experiment: hCTR2 cAMP assay (AlphaScreen) in COS7 cells; type: cell-based; details: cAMP induction, COS7 cells expressing hCTR2; Table 1; read-out: hCTR2 EC50
T1 construct: expressed in transfected cells
T1 sequence (P30988 25-474): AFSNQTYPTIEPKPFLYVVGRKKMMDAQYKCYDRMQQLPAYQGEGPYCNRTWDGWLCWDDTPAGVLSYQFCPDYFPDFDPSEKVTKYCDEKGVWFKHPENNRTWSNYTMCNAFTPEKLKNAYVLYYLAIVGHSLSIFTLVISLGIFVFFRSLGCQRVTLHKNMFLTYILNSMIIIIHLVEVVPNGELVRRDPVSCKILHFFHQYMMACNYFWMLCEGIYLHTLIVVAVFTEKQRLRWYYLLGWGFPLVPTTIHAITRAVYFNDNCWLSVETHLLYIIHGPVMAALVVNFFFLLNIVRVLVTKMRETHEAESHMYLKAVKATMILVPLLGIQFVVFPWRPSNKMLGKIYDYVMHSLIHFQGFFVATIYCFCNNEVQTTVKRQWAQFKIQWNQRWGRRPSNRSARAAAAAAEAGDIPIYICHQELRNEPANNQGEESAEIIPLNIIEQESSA
Excerpt: The cell line COS7, originating from African Green Monkey kidney fibroblast cells, was used for establishment of the stable cell lines described below. The COS7 cellular background was used due to it being RAMP naïve, and as such it provides the best available system for testing of the monomeric hCTR and different heterodimeric amylin receptor subtypes functionally generated by introduction of the individual RAMPs.
A cell line expressing the human calcitonin receptor (hCTR2) was generated in the COS7 cellular background as stable clones. In brief, hCTR2 (GI: 4502547) was amplified by PCR using primers encoding terminal restriction sites for subcloning. The 5′-end primers additionally encoded a near Kozak consensus sequence to ensure efficient translation. The fidelity of the DNA encoding the receptor was confirmed by DNA sequencing. The PCR products encoding the receptor were subcloned into a mammalian expression vector containing a neomycin (G418) resistance marker. The mammalian expression vector encoding the receptor was transfected into COS7 cells by a standard liposome transfection method. 48 hours post-transfection, cells were seeded for limited dilution cloning and selected with 1 mg/ml G418 in the culture medium. After 3 weeks, surviving colonies of hCTR2-expressing cells were picked, propagated and tested in the amylin efficacy assay as described in Example 3 below. One hCTR2-expressing clone was chosen for compound profiling.
In vitro activity of test peptides at the hCTR2 and hAMYR3 receptors was assessed by measuring the induction of cAMP following stimulation of the receptor using the AlphaScreen® cAMP Assay kit from Perkin-Elmer.
Briefly, COS7 cells expressing hCTR2 (see Example 2, above) were seeded at 30-40,000 cells per well in 96-well microtiter plates coated with 0.01% poly-L-lysine, and grown for 1 day in culture in 100 μl growth medium [DMEM, 10% FCS, Penicillin (100 IU/ml), Streptomycin (100 μg/ml)]. On the day of analysis, growth medium was removed and the cells were washed once with 200 μl Tyrode buffer [Tyrode's Salts (9.6 g/I), 10 mM HEPES, pH 7.4]. Cells were incubated in 100 μl Tyrode buffer containing increasing concentrations of test peptides, 100 µM IBMX and 0.1% casein for 15 min at 37° C. The reaction was stopped by carefully decanting off the compound/buffer medium and replacing it with lysis/detection buffer (80 μl 0.1% w/v BSA, 5 mM HEPES, 0.3% v/v Tween-20 in deionized water). After incubation at room temperature for 10 min., the cAMP content of the resulting cell lysate was estimated according to the AlphaScreen® cAMP Assay manufacturer's instructions. EC50 values were estimated by computer-aided curve fitting using the 4-parameter logistic (4PL) non-linear model.

Question: Which EC50 does the source give for `CC[C@H](C)[C@@H](C(=O)N[C@@H](CC(C)C)C(=O)N[C@@H](CO)C(=O)N[C@@H](CO)C(=O)N[C@H](C(=O)N[C@@H](CCC(=O)O)C(=O)N[C@H](C(=O)NCC(=O)N[C@@H](CO)C(=O)N[C@@H](CC(N)=O)C(=O)N[C@H](C(=O)N1C[C@H](O)C[C@H]1C(N)=O)[C@@H](C)O)C(C)C)[C@@H](C)O)N(C)C(=O)[C@H](C)NC(=O)CN(C)C(=O)[C@H](Cc1ccccc1)NC(=O)[C@H](CO)NC(=O)[C@H](CO)NC(=O)[C@H](CCCNC(=N)N)NC(=O)[C@@H](NC(=O)[C@H](CC(C)C)NC(=O)[C@H](Cc1ccccc1)NC(=O)[C@H](CC(N)=O)NC(=O)[C@H](C)NC(=O)[C@H](CC(C)C)NC(=O)[C@H](CCCNC(=N)N)NC(=O)[C@H](CCC(=O)O)NC(=O)[C@@H](NC(=O)[C@H](C)NC(=O)[C@@H]1CSSC[C@H](NC(=O)[C@H](CCCNC(=N)N)NC(=O)CC[C@H](NC(=O)CCCCCCCCCCCCCCCCCCC(=O)O)C(=O)O)C(=O)NCC(=O)N[C@@H]([C@@H](C)O)C(=O)N[C@@H](C)C(=O)N[C@@H]([C@@H](C)O)C(=O)N1)[C@@H](C)O)C(C)C` [Compound 17, [19CD]-isoGlu-R-C( )-GTAT-C( )-ATERLANFLVRSSF-Gly(Me)-A-Ile(Me)-LSSTEVGSNT-Hyp-NH2] ({C20 diacid-γGlu}-RCGTATCATERLANFLVRSSF[Sar]A[NMeI]LSSTEVGSNT[Hyp]-NH2; disulfide 2-7) here?
Answer: 0.13 nM

Question: Which EC50 does the source give for `CC[C@H](C)[C@@H](C(=O)N[C@@H](CC(C)C)C(=O)N[C@@H](CO)C(=O)N[C@@H](CO)C(=O)N[C@H](C(=O)N[C@@H](CCC(=O)O)C(=O)N[C@H](C(=O)NCC(=O)N[C@@H](CO)C(=O)N[C@@H](CO)C(=O)N[C@H](C(=O)N1C[C@H](N)C[C@H]1C(N)=O)[C@@H](C)O)C(C)C)[C@@H](C)O)N(C)C(=O)[C@H](C)NC(=O)CN(C)C(=O)[C@H](Cc1ccccc1)NC(=O)[C@H](CO)NC(=O)[C@H](CO)NC(=O)[C@H](CCCNC(=N)N)NC(=O)[C@@H](NC(=O)[C@H](CC(C)C)NC(=O)[C@H](Cc1ccccc1)NC(=O)[C@H](Cc1c[nH]cn1)NC(=O)[C@H](C)NC(=O)[C@H](CC(C)C)NC(=O)[C@H](CCCNC(=N)N)NC(=O)[C@H](CCC(=O)O)NC(=O)[C@@H](NC(=O)[C@H](C)NC(=O)[C@@H]1CSSC[C@H](NC(=O)[C@H](CCCNC(=N)N)NC(=O)CC[C@H](NC(=O)CCCCCCCCCCCCCCCCCCC(=O)O)C(=O)O)C(=O)NCC(=O)N[C@@H]([C@@H](C)O)C(=O)N[C@@H](C)C(=O)N[C@@H]([C@@H](C)O)C(=O)N1)[C@@H](C)O)[C@@H](C)O` [Compound 45, [19CD]-isoGlu-R-C( )-GTAT-C( )-ATERLAHFLTRSSF-Gly(Me)-A-Ile(Me)-LSSTEVGSST-Apr-NH2] ({C20 diacid-γGlu}-RCGTATCATERLAHFLTRSSF[Sar]A[NMeI]LSSTEVGSST[Pro(4R-NH2)]-NH2; disulfide 2-7) here?
Answer: 0.16 nM

Question: Which EC50 does the source give for `CC[C@H](C)[C@@H](C(=O)N[C@@H](CC(C)C)C(=O)N[C@@H](CO)C(=O)N[C@@H](CO)C(=O)N[C@H](C(=O)N[C@@H](CCC(=O)O)C(=O)N[C@H](C(=O)NCC(=O)N[C@@H](CO)C(=O)N[C@@H](CC(N)=O)C(=O)N[C@H](C(=O)N1CCC[C@H]1C(N)=O)[C@@H](C)O)C(C)C)[C@@H](C)O)N(C)C(=O)[C@H](C)NC(=O)CN(C)C(=O)[C@H](Cc1ccccc1)NC(=O)[C@H](CO)NC(=O)[C@H](CO)NC(=O)[C@H](CCCNC(=N)N)NC(=O)[C@H](CCC(N)=O)NC(=O)[C@H](CC(C)C)NC(=O)[C@H](Cc1ccccc1)NC(=O)[C@H](Cc1c[nH]cn1)NC(=O)[C@H](C)NC(=O)[C@H](CC(C)C)NC(=O)[C@H](CCCNC(=N)N)NC(=O)[C@H](CCC(N)=O)NC(=O)[C@@H](NC(=O)[C@H](C)NC(=O)[C@@H]1CSSC[C@H](NC(=O)[C@H](CCCNC(=N)N)NC(=O)CC[C@H](NC(=O)CCCCCCCCCCCCCCCCCCC(=O)O)C(=O)O)C(=O)N[C@@H](CC(N)=O)C(=O)N[C@@H]([C@@H](C)O)C(=O)N[C@@H](C)C(=O)N[C@@H]([C@@H](C)O)C(=O)N1)[C@@H](C)O` [Compound 61, [19CD]-isoGlu-R-C( )-NTAT-C( )-ATQRLAHFLQRSSF-Gly(Me)-A-Ile(Me)-LSSTEVGSNTP-NH2] ({C20 diacid-γGlu}-RCNTATCATQRLAHFLQRSSF[Sar]A[NMeI]LSSTEVGSNTP-NH2; disulfide 2-7) here?
Answer: 0.12 nM

Question: For `CC[C@H](C)[C@@H](C(=O)N[C@@H](CC(C)C)C(=O)N[C@@H](CO)C(=O)N[C@@H](CO)C(=O)N[C@H](C(=O)N[C@@H](CCC(=O)O)C(=O)N[C@H](C(=O)NCC(=O)N[C@@H](CO)C(=O)N[C@@H](CC(N)=O)C(=O)N[C@H](C(=O)N1C[C@H](O)C[C@H]1C(N)=O)[C@@H](C)O)C(C)C)[C@@H](C)O)N(C)C(=O)[C@H](C)NC(=O)CN(C)C(=O)[C@H](Cc1ccccc1)NC(=O)[C@H](CO)NC(=O)[C@H](CO)NC(=O)[C@H](CCCNC(=N)N)NC(=O)[C@H](CCC(N)=O)NC(=O)[C@H](CC(C)C)NC(=O)[C@H](Cc1ccccc1)NC(=O)[C@H](Cc1c[nH]cn1)NC(=O)[C@H](C)NC(=O)[C@H](CC(C)C)NC(=O)[C@H](CCCNC(=N)N)NC(=O)[C@H](CCC(=O)O)NC(=O)[C@@H](NC(=O)[C@H](C)NC(=O)[C@@H]1CSSC[C@H](NC(=O)[C@H](CCCNC(=N)N)NC(=O)CC[C@H](NC(=O)CCCCCCCCCCCCCCCCCCC(=O)O)C(=O)O)C(=O)N2CCC[C@H]2C(=O)N[C@@H]([C@@H](C)O)C(=O)N[C@@H](C)C(=O)N[C@@H]([C@@H](C)O)C(=O)N1)[C@@H](C)O` [Compound 63, [19CD]-isoGlu-R-C( )-PTAT-C( )-ATERLAHFLQRSSF-Gly(Me)-A-Ile(Me)-LSSTEVGSNT-Hyp-NH2] ({C20 diacid-γGlu}-RCPTATCATERLAHFLQRSSF[Sar]A[NMeI]LSSTEVGSNT[Hyp]-NH2; disulfide 2-7), which EC50 is on record?
Answer: 0.35 nM

Question: For `CC[C@H](C)[C@@H](C(=O)N[C@@H](CC(C)C)C(=O)N[C@@H](CO)C(=O)N[C@@H](CO)C(=O)N[C@H](C(=O)N[C@@H](CCC(=O)O)C(=O)N[C@H](C(=O)NCC(=O)N[C@@H](CO)C(=O)N[C@@H](CC(N)=O)C(=O)N[C@H](C(=O)N1CCC[C@H]1C(N)=O)[C@@H](C)O)C(C)C)[C@@H](C)O)N(C)C(=O)[C@H](C)NC(=O)CN(C)C(=O)[C@H](Cc1ccccc1)NC(=O)[C@H](CO)NC(=O)[C@H](CO)NC(=O)[C@H](CCCNC(=N)N)NC(=O)[C@H](CCC(N)=O)NC(=O)[C@H](CC(C)C)NC(=O)[C@H](Cc1ccccc1)NC(=O)[C@H](CC(=O)O)NC(=O)[C@H](C)NC(=O)[C@H](CC(C)C)NC(=O)[C@H](CCCNC(=N)N)NC(=O)[C@H](CCC(=O)O)NC(=O)[C@@H](NC(=O)[C@H](C)NC(=O)[C@@H]1CSSC[C@H](NC(=O)[C@H](CCCNC(=N)N)NC(=O)CC[C@H](NC(=O)CCCCCCCCCCCCCCCCCCC(=O)O)C(=O)O)C(=O)N2CCC[C@H]2C(=O)N[C@@H]([C@@H](C)O)C(=O)N[C@@H](C)C(=O)N[C@@H]([C@@H](C)O)C(=O)N1)[C@@H](C)O` [Compound 67, [19CD]-isoGlu-R-C( )-PTAT-C( )-ATERLADFLQRSSF-Gly(Me)-A-Ile(Me)-LSSTEVGSNTP-NH2] ({C20 diacid-γGlu}-RCPTATCATERLADFLQRSSF[Sar]A[NMeI]LSSTEVGSNTP-NH2; disulfide 2-7), which EC50 is on record?
Answer: 0.27 nM
